Source: patent publication US20060105013A1, “Osteopontin-coated surfaces and methods of use” (priority 2000, published 2006)

Assays:
[1] = test system: HOS cells; test: Extracellular matrix mineralization (calcium content) of HOS cells on coated Ti disks; assay type: cell-based, human; settings: ascorbate and β-glycerol phosphate, uncoated did not mineralize
Method: HOS cells were grown either on coated or uncoated titanium disks. Media was supplemented with ascorbate and b-glycerol phosphate to stimulate the mineralization of the extracellular matrix. After two weeks, media was removed and the cells were lysed with triton. Then, all soluble components were removed and calcium content was determined using quantitative, calorimetric determination at […] (Sigma Diagnostics Calcium). Basically, calcium reacts with o-cresolphthalein, a chromogenic agent that in an alkaline medium forms a purple colored complex. The intensity of the color, measured at […], is directly proportional to calcium concentration in the sample.
HOS cells were grown either on coated or uncoated titanium disks. Media was supplemented with ascorbate and β-glycerol phosphate. After two weeks, media was removed and the cells were lysed. Then, all soluble components were removed and calcium content was determined using quantitative, colorimetric determination at 575 nm (Sigma Diagnostics Calcium). All measurements were done in triplicates and reported as mean±Standard error in the mean.
When cultured in the presence of ascorbate and β-glycerol phosphate, HOS cells grown on coated Ti disks mineralized their extracellular matrix within 2 weeks (FIG. 5) in a manner similar to HOS cells cultured on plastic. […]

[2] = test system: HOS cells; test: Attachment of HOS cells to plastic, glass or chromocobalt surfaces coated with OPN; assay type: cell-based, human; settings: 1 hour
Method: 500 cells were plated on coated plastic, glass or chromocobalt surfaces and incubated at 37° C. in a humidified atmosphere (95% air 5% CO2). Surfaces were coated with either human recombinant phosphorylated OPN (rhOPN) or unphosphorylated OPN. Fibronectin coated surfaces were used as a control. After 1 hour, unattached cells were removed and the surfaces were washed with PBS. The total number of attached cells was determined for the total cpm released for the surfaces after the cells were lysed with 10% TCA and solubilized in 5 ml scintillation fluid. All measurements were done in triplicates.

rhOPN: human recombinant phosphorylated form of osteopontin
time within which HOS cells mineralized their extracellular matrix [1]: ≤ 2 weeks | % total attached ([2]; Plastic surface): 90.8% | % total attached ([2]; chromocobalt (CrCo) surface): 69.2% | % total attached ([2]; glass surface): 98.1%
